The target of test [1] is human recombinant GST cleaved CSNK1D (Homo sapiens (Human), UniProt P48730). In words: Purified enzyme assay (ADP-Glo Kinase Assay). Format: biochemical. As to conditions: 2 nM CSNK1D, peptide substrate 150 μM, ATP 20 μM, 45 minutes room temperature.
Test [2] deals with human CSNK1D tagged with nanoluciferase (Homo sapiens (Human), UniProt P48730). In words: Whole Cell nBRET CSNK1D Binding Assay. Conditions: living CHO cells stably expressing human CSNK1D-nanoluciferase; NanoBret tracer 130 nM; 2 hours 37° C.; read-out: CSNK1D BRET IC50. Put shortly:
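Live CHO cells stably expressing nanoluciferase-tagged CSNK1D, seeded in serum-free OptiMEM, received compound dose-response plus NanoBRET tracer (130 nM) for 2 h at 37 °C.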
In general terms: Bioluminescence resonance energy transfer reports proximity on the nanometre scale.

Data on 34 molecules can be found in patent US20230339900A1, “CASEIN KINASE 1 DELTA MODULATORS” (Janssen Pharmaceutica NV, priority 2020, published 2023).

What is called AC50 is the midpoint of the concentration-response curve, whichever way the signal moves. In general, IC50 refers to the point on the concentration scale where inhibition reaches its midpoint.

The structures appear in SMILES notation.

Chain of human CSNK1D tagged with nanoluciferase (P48730 whole entry): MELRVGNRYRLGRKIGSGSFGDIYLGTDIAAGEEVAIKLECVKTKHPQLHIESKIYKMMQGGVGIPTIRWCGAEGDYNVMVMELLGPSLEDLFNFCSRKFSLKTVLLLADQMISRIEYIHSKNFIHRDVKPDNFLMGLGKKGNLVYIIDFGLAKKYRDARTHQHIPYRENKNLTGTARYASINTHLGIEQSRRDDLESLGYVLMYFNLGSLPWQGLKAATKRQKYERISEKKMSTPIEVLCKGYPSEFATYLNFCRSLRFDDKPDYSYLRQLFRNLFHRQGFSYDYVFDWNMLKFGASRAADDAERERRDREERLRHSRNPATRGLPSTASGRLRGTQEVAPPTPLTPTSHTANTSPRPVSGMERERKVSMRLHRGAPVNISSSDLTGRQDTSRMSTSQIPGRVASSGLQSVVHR
Chain of human recombinant GST cleaved CSNK1D (P48730 whole entry): as above

As for `Cc1cncc(-c2nn(C)cc2-c2cc(C)nc3[nH]ncc23)c1` [Example 137, 6-Methyl-4-[1-methyl-3-(5-methyl-3-pyridyl)pyrazol-4-yl]-1H-pyrazolo[3,4-b]pyridine], the AC50 in test [1] came to 38 nM. Besides, the IC50 in test [2] is 890 nM.

In the case of `Cn1cc(-c2ccnc3[nH]ccc23)c(-c2ccc(OC(F)(F)F)cn2)n1` [Example 36, 4-[1-Methyl-3-[5-(trifluoromethoxy)-2-pyridyl]pyrazol-4-yl]-1H-pyrrolo[2,3-b]pyridine], the AC50 in test [1] was 6480 nM. The IC50 in test [2] was above 10000 nM.

For `Cn1cc(-c2ccnc3c2CCC3)c(-c2ccc(F)cn2)n1` [Example 2, 4-(3-(5-Fluoropyridin-2-yl)-1-methyl-1H-pyrazol-4-yl)-6,7-dihydro-5H-cyclopenta[b]pyridine], in test [1], the half-maximal activity concentration (AC50) is 37 nM. Besides, the IC50 in test [2] was 955 nM.

`Cn1cc(-c2ccnc3[nH]ccc23)c(-c2nccs2)n1` [Example 16, 2-(1-Methyl-4-(1H-pyrrolo[2,3-b]pyridin-4-yl)-1H-pyrazol-3-yl)thiazole]: the AC50 in test [1] amounted to 15 nM. The IC50 in test [2] is 319 nM.

Take `Cc1c[nH]c2nccc(-c3cn(C)nc3-c3ccc(F)cn3)c12` [Example 82, 4-[3-(5-Fluoro-2-pyridyl)-1-methyl-pyrazol-4-yl]-3-methyl-1H-pyrrolo[2,3-b]pyridine]: the AC50 in test [1] is 6 nM. Also, the IC50 in test [2] was 59 nM.

With `Cc1cc(-c2nn(C)cc2-c2cc(C)nc3[nH]ncc23)cnn1` [Example 143, 6-Methyl-4-[1-methyl-3-(6-methylpyridazin-4-yl)pyrazol-4-yl]-1H-pyrazolo[3,4-b]pyridine], the AC50 in test [1] came out at 1540 nM. In addition, the IC50 in test [2] was above 10000 nM.

As to `Cc1cc(-c2cn(CC3COC3)nc2-c2ccc(F)cn2)c2cn[nH]c2n1` [Example 50, 4-[3-(5-Fluoro-2-pyridyl)-1-(oxetan-3-ylmethyl)pyrazol-4-yl]-6-methyl-1H-pyrazolo[3,4-b]pyridine], in test [1], the AC50 was determined as 5 nM. For the same molecule, the half-maximal inhibitory concentration (IC50) in test [2] is 122 nM.

Turning to `Cn1cc(-c2ccnc3[nH]ncc23)c(-c2ccncc2F)n1` [Example 19, 4-[3-(3-Fluoro-4-pyridyl)-1-methyl-pyrazol-4-yl]-1H-pyrazolo[3,4-b]pyridine], the AC50 in test [1] was found to be 92 nM. The IC50 in test [2] was 797 nM.

Consider `Cc1cc2c(-c3cn(C)nc3-c3ccc(F)cn3)ccnc2[nH]1` [Example 81, 4-(3-(5-Fluoropyridin-2-yl)-1-methyl-1H-pyrazol-4-yl)-2-methyl-1H-pyrrolo[2,3-b]pyridine], for which, in test [1], the AC50 was determined as 84 nM. Moreover, the IC50 in test [2] is 1460 nM.

`Cn1cc(-c2ccnc3[nH]ccc23)c(-c2cnco2)n1` [Example 6, 5-(1-Methyl-4-(1H-pyrrolo[2,3-b]pyridin-4-yl)-1H-pyrazol-3-yl)oxazole]: the AC50 in test [1] is 41 nM. Also, the IC50 in test [2] is 1420 nM.

Regarding `Cn1cc(-c2ccnc3[nH]ccc23)c(-c2ccncc2)n1` [Example 17, 4-[1-Methyl-3-(4-pyridyl)pyrazol-4-yl]-1H-pyrrolo[2,3-b]pyridine], the AC50 in test [1] was 101 nM. The IC50 in test [2] is 1640 nM.

With `Cn1cc(-c2ccnc3sccc23)c(-c2ccc(F)cn2)n1` [Example 145, 4-[3-(5-Fluoro-2-pyridyl)-1-methyl-pyrazol-4-yl]thieno[2,3-b]pyridine], in test [1], the AC50 amounted to 40 nM. Moreover, the IC50 in test [2] was found to be 778 nM.

Consider `COc1ccc2ncc(F)c(-c3cn(C)nc3-c3ccc(F)cn3)c2n1` [Example 156, 7-Fluoro-8-[3-(5-fluoro-2-pyridyl)-1-methyl-pyrazol-4-yl]-2-methoxy-1,5-naphthyridine], for which the AC50 in test [1] amounted to 52 nM. Further, the IC50 in test [2] amounted to 803 nM.

As to `Fc1ccc(-c2nn(C3COC3)cc2-c2ccnc3[nH]ccc23)nc1` [Example 72, 4-[3-(5-Fluoro-2-pyridyl)-1-(oxetan-3-yl)pyrazol-4-yl]-1H-pyrrolo[2,3-b]pyridine], the AC50 in test [1] was 8 nM. In test [2], the IC50 amounted to 136 nM.

As for `Cn1cc(-c2c(CC#N)cnc3[nH]ccc23)c(-c2ccc(F)cn2)n1` [Example 90, 2-[4-[3-(5-Fluoro-2-pyridyl)-1-methyl-pyrazol-4-yl]-1H-pyrrolo[2,3-b]pyridin-5-yl]acetonitrile], in test [1], the AC50 was determined as 75 nM. In test [2], the IC50 was 7160 nM.

For the molecule `Cc1cccc(-c2nn(C)cc2-c2cc(C)nc3[nH]ncc23)n1` [Example 30, 6-Methyl-4-(1-methyl-3-(6-methylpyridin-2-yl)-1H-pyrazol-4-yl)-1H-pyrazolo[3,4-b]pyridine], the AC50 in test [1] worked out at 24 nM. The IC50 in test [2] worked out at 388 nM.

Turning to `Cc1ccc(-c2nn(C)cc2-c2ccnc3[nH]ccc23)cn1` [Example 22, 4-[1-Methyl-3-(6-methyl-3-pyridyl)pyrazol-4-yl]-1H-pyrrolo[2,3-b]pyridine], the AC50 in test [1] was determined as 44 nM. Also, the IC50 in test [2] was found to be 1170 nM.

With `COc1ccc2c(-c3cn(C)nc3-c3ccc(F)cn3)ccnc2c1` [Example 108, 4-[3-(5-Fluoro-2-pyridyl)-1-methyl-pyrazol-4-yl]-7-methoxy-quinoline], the AC50 in test [1] was 13 nM. For the same molecule, in test [2], the IC50 is 373 nM.

For the molecule `Cn1cc(-c2cc(C(F)F)nc3[nH]ncc23)c(-c2cncc(F)c2)n1` [Example 146, 6-(Difluoromethyl)-4-[3-(5-fluoro-3-pyridyl)-1-methyl-pyrazol-4-yl]-1H-pyrazolo[3,4-b]pyridine], the AC50 in test [1] is 171 nM. The IC50 in test [2] is 6570 nM.

With `Cc1csc2c(-c3cn(C)nc3-c3ccc(F)cn3)ccnc12` [Example 132, 7-[3-(5-Fluoro-2-pyridyl)-1-methyl-pyrazol-4-yl]-3-methyl-thieno[3,2-b]pyridine], in test [1], the AC50 was determined as 361 nM. For the same molecule, the IC50 in test [2] was determined as 5170 nM.

In the case of `Cn1cc(-c2cc(C3CC3)nc3[nH]ncc23)c(-c2ccc(F)cn2)n1` [Example 101, 6-Cyclopropyl-4-(3-(5-fluoropyridin-2-yl)-1-methyl-1H-pyrazol-4-yl)-1H-pyrazolo[3,4-b]pyridine], the AC50 in test [1] was found to be 34 nM. The IC50 in test [2] was 829 nM.

With `Cn1cc(-c2ccnc3[nH]c(C(F)F)cc23)c(-c2ccc(F)cn2)n1` [Example 84, 2-(Difluoromethyl)-4-(3-(5-fluoropyridin-2-yl)-1-methyl-1H-pyrazol-4-yl)-1H-pyrrolo[2,3-b]pyridine], in test [1], the AC50 was 23 nM. Further, the IC50 in test [2] came out at 224 nM.

As for `Cn1cc(-c2ccnc3[nH]ccc23)c(-c2cc(F)ccn2)n1` [Example 27, 4-[3-(4-Fluoro-2-pyridyl)-1-methyl-pyrazol-4-yl]-1H-pyrrolo[2,3-b]pyridine], the AC50 in test [1] came to 4 nM. For the same molecule, the IC50 in test [2] turned out to be 178 nM.

For `Cn1cc(-c2ccnc3[nH]ccc23)c(-c2cnccn2)n1` [Example 46, 4-(1-Methyl-3-pyrazin-2-yl-pyrazol-4-yl)-1H-pyrrolo[2,3-b]pyridine], the AC50 in test [1] turned out to be 84 nM. Moreover, the IC50 in test [2] was 2190 nM.

Turning to `Cn1cc(-c2c(C3COC3)cnc3[nH]ccc23)c(-c2ccc(F)cn2)n1` [Example 91, 4-(3-(5-Fluoropyridin-2-yl)-1-methyl-1H-pyrazol-4-yl)-5-(oxetan-3-yl)-1H-pyrrolo[2,3-b]pyridine], the AC50 in test [1] was found to be 19 nM. In addition, the IC50 in test [2] turned out to be 653 nM.

In the case of `Cc1cc(-c2cn(C)nc2-c2ccc(Cl)c(C)n2)c2cn[nH]c2n1` [Example 39, 4-(3-(5-Chloro-6-methylpyridin-2-yl)-1-methyl-1H-pyrazol-4-yl)-6-methyl-1H-pyrazolo[3,4-b]pyridine], in test [1], the AC50 is 128 nM. Further, the IC50 in test [2] turned out to be 3250 nM.

`Cc1cc(-c2cn(C)nc2-c2c(C)cncc2F)c2cn[nH]c2n1` [Example 140, 4-[3-(3-Fluoro-5-methyl-4-pyridyl)-1-methyl-pyrazol-4-yl]-6-methyl-1H-pyrazolo[3,4-b]pyridine]: the AC50 in test [1] was determined as 1170 nM. Besides, in test [2], the IC50 was above 10000 nM.

Consider `Fc1ccc(-c2nn(C(F)F)cc2-c2ccnc3[nH]ncc23)nc1` [Example 66, 4-(1-(Difluoromethyl)-3-(5-fluoropyridin-2-yl)-1H-pyrazol-4-yl)-1H-pyrazolo[3,4-b]pyridine], for which, in test [1], the AC50 worked out at 526 nM. Moreover, the IC50 in test [2] was determined as 1070 nM.

In the case of `Cn1cc(-c2ccnc3[nH]c(C(F)(F)F)cc23)c(-c2ccc(F)cn2)n1` [Example 85, 4-(3-(5-Fluoropyridin-2-yl)-1-methyl-1H-pyrazol-4-yl)-2-(trifluoromethyl)-1H-pyrrolo[2,3-b]pyridine], in test [1], the AC50 worked out at 22 nM. Besides, the concentration for half-maximal inhibition (IC50) in test [2] is 255 nM.

Consider `Cn1cc(-c2ccnc3[nH]ccc23)c(-c2cncs2)n1` [Example 14, 5-(1-Methyl-4-(1H-pyrrolo[2,3-b]pyridin-4-yl)-1H-pyrazol-3-yl)thiazole], for which the concentration at half-maximal activity (AC50) in test [1] was found to be 83 nM. The IC50 in test [2] came out at 3130 nM.

On to `Cc1cc(-c2cn(C)nc2-c2ccc(F)cn2)c2c(C)n[nH]c2n1` [Example 100, 4-[3-(5-Fluoro-2-pyridyl)-1-methyl-pyrazol-4-yl]-3,6-dimethyl-1H-pyrazolo[3,4-b]pyridine], for which the AC50 in test [1] turned out to be 12 nM. The IC50 in test [2] was 197 nM.

Regarding `Cn1cc(-c2ccnc3cc(F)cnc23)c(-c2ccc(F)cn2)n1` [Example 152, 3-Fluoro-8-[3-(5-fluoro-2-pyridyl)-1-methyl-pyrazol-4-yl]-1,5-naphthyridine], the AC50 in test [1] came to 73 nM. Moreover, the IC50 in test [2] came to 578 nM.

With `Cc1ccc2nccc(-c3cn(C)nc3-c3ccc(F)cn3)c2n1` [Example 131, 8-[3-(5-Fluoro-2-pyridyl)-1-methyl-pyrazol-4-yl]-2-methyl-1,5-naphthyridine], in test [1], the AC50 is 310 nM. Further, in test [2], the IC50 came out at 4480 nM.

In the case of `CC(=O)Nc1cc(-c2cn(C)nc2-c2ccc(F)cn2)ccn1` [Example 115, N-(4-(3-(5-Fluoropyridin-2-yl)-1-methyl-1H-pyrazol-4-yl)pyridin-2-yl)acetamide], the AC50 in test [1] is 9 nM. Moreover, in test [2], the IC50 stood at 315 nM.
